In BindingDB's records for doi:10.1124/jpet.103.054775 (Cornell University, 2003):
Several values for one entry are separate records, joined by “and”; a condition that tells them apart may be missing. Equal entries are not always repeated. Non-standard residues stand in square brackets, D forms with d. Residues, ends and D or L forms follow the SMILES beside them. Dmt = Cc1cc(O)cc(C)c1C[C@H](N)C(=O)O

Each molecule was assayed against Mu-type opioid receptor (Mus musculus, UniProt P42866).
Mu-type opioid receptor, sequence (P42866 whole entry): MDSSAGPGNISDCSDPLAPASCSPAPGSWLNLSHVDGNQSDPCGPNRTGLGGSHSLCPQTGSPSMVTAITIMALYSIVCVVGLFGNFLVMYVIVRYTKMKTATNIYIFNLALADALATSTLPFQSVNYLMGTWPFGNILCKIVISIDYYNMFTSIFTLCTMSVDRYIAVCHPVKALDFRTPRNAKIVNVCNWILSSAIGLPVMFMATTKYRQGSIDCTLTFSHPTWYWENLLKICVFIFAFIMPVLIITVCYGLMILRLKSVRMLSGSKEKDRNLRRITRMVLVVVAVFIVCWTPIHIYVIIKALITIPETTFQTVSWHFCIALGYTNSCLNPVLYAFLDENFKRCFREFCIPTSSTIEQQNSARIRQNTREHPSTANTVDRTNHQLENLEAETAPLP
In the case of `C[C@@H](NC(=O)[C@@H](N)Cc1ccc(O)cc1)C(=O)N[C@@H](Cc1ccccc1)C(=O)N[C@@H](Cc1ccccc1)C(N)=O` (H-Y[dA]FF-NH2), the Ki is reported as 1.53 nM and 3.44 nM.
With `NCCC[C@H](NC(=O)[C@H](Cc1ccccc1)NC(=O)[C@@H](CCCN=C(N)N)NC(=O)[C@@H](N)Cc1ccc(O)cc1)C(N)=O` [5-amino-2-{1-[1-[1-amino-2-(4-hydroxyphenyl)ethylcarboxamido]-4-amino(imino)methylamino-(1R)-butylcarboxamido]-2-phenylethylcarboxamido}pentanamide] the Ki was 1.2 nM and 10.4 nM.
For `Cc1cc(O)cc(C)c1C[C@H](N)C(=O)N[C@H](C)C(=O)N[C@@H](Cc1ccccc1)C(=O)N[C@@H](Cc1ccccc1)C(N)=O` [Dmt-d-Ala-Phe-Phe-NH2] (H-[Dmt][dA]FF-NH2), the Ki was 0.173 nM and 0.174 nM.
`Cc1cc(O)cc(C)c1C[C@H](N)C(=O)N[C@H](CCCN=C(N)N)C(=O)N[C@@H](Cc1ccccc1)C(=O)N[C@@H](CN)C(N)=O` [Dmt-d-Arg-Phe-A2pr-NH2] was tested, and the Ki was 0.0636 nM and 0.145 nM.
For `Cc1cc(O)cc(C)c1C[C@H](N)C(=O)N[C@H](CCCN=C(N)N)C(=O)N[C@@H](Cc1ccccc1)C(=O)N[C@@H](CCCN)C(N)=O` [Dmt-d-Arg-Phe-Orn-NH2], the Ki was 0.151 nM and 0.161 nM.
`NCCCC[C@H](NC(=O)[C@H](Cc1ccccc1)NC(=O)[C@@H](CCCN=C(N)N)NC(=O)[C@@H](N)Cc1ccc(O)cc1)C(N)=O` [NSC_122222] was tested, and the Ki was 1.69 nM and 12.9 nM.
In the case of `NC[C@H](NC(=O)[C@H](Cc1ccccc1)NC(=O)[C@@H](CCCN=C(N)N)NC(=O)[C@@H](N)Cc1ccc(O)cc1)C(N)=O` [Tyr-d-Arg-Phe-A2pr-NH2], the Ki is reported as 2.55 nM and 12.7 nM.
